Laboratory results reported in patent US4533655A, “Analgesic dipeptide amides and method of use and compositions thereof” (Sterling Drug Inc., priority 1982, dated 1985).

How the values were obtained:
[1] = tested on: guinea pig ileum longitudinal muscle (electrically induced twitch); test: Guinea pig ileum test; assay type: cell-based; details: ratio of IC50 of reference Met^5-enkephalin to IC50 of test compound in same preparation, averaged (N=4); Met^5-enkephalin = 100
Protocol: Adult male guinea pigs (Charles River, Hartley strain) weighing 300-500 g. are decapitated, and the terminal ileum is exposed by reflecting the overlying cecum, severed at the ileocecal juncture, and removed while cutting the mesenteric attachments to avoid excessive traction on the tissue. The ileum (about 30 cm. in length) is transferred to a beaker containing warm modified Krebs-Henseleit solution (118 mM sodium chloride, 4.75 mM potassium chloride, 2.54 mM calcium chloride, 1.19 mM potassium dihydrogen phosphate, 1.2 mM magnesium sulfate, 25 mM sodium bicarbonate, 11 mM glucose, 20 μM choline chloride and 0.125 μM pyrilamine maleate). The terminal (aboral) portion (about 10 cm. in length) is discarded, and segments (3-4 cm. in length) are cut from the remainder and gently slid onto a glass rod (5-6 mm. in diameter) and arranged so that the mesenteric attachment is in a straight line. A cotton swab moistened in the solution is then carefully used to separate the longitudinal muscle from the underlying circular muscle. The longitudinal muscle and adhering myenteric plexus is then gently removed from the remaining tissue with forceps.
Strips of this prepared longitudinal muscle are mounted in a double-jacketed organ bath (5 ml.) under tension (1.0 g.), connected to isometric transducers (Grass FT 0.03), bathed in the modified Krebs-Henseleit solution described above, aerated with oxygen-carbon dioxide (95:5) and maintained at 37° C.
Stimulators (Grass S-44) are set to deliver repetitive monophasic square wave field stimulation (supramaximal voltage, 0.10 Hz., 0.25 msec. duration) through platinum ring electrodes at the top and bottom of the bath. Regular contractions of the muscle, which result from electrically-induced liberation of acetylcholine from postganglionic parasympathetic nerves, are recorded on a polygraph (Grass model 5). Following tissue equilibration (45-60 min.) and repeated washing (every 10 min.) an aqueous solution of a reference or test compound is added to the bath in a microliter volume (1.25-250 μl) and reductions in muscle twitch height are recorded. More compound can be added […] first washing the preparation.
From the results a half-mazimal inhibitory concentration (IC50) value for the compound is computed by regression analysis of a linear plot of logarithm of concentration against percent of inhibition of twitch height (probits). The ratio of the IC50 value of a reference compound to that of a test compound tested in the same preparation is the molar potency ratio. Usually four preparations are tested simultaneously by the same person (N=4), and the resulting four molar potency ratios are averaged.
The following results were obtained using the examples as test compounds and Met^5 -enkephalin as the reference compound.

Male Swiss-Webster mice = test: Mouse acetylcholine writhing test; assay type: in vivo; details: 20 min, subcutaneous, acetylcholine 3.2 mg./kg. i.p. 20 min after dosing, 95% confidence limits in parentheses
Protocol: Male Swiss-Webster mice each weighing 18-24 g. are treated subcutaneously (10 ml./kg. injection volume) or orally with the test compound in an aqueous vehicle. Twenty minutes thereafter each mouse is injected intraperitoneally with acetylcholine (3.2 mg./kg.) in aqueous sodium chloride (0.9%). This dose of acetylcholine causes one or more characteristic writhes in the two minute period following injection in control mice which receive the aqueous vehicle not containing the test compound. […] Test compounds are screened at doses of 100 and 30 mg./kg. subcutaneously and 300 and 100 mg./kg. orally using 15 mice at each dose level. ED50 values for active compounds are estimated by probit analysis of quantal scores at four or more dose levels using 15 mice at each dose level.

rat = rat tail flick, relative to morphine, cited from earlier work
guinea pig ileum = details: cited from earlier work
mouse vas deferens = details: cited from earlier work

Compound	Average Molar Potency Ratio [1]	ED50 (Male Swiss-Webster mice) [mg/kg]	further results
C[C@H](C(=O)NCCCc1ccccc1)N(C)C(=O)[C@@H](N)Cc1ccc(O)cc1 [Example 1, L-tyrosyl-N^2-methyl-N-(3-phenylpropyl)-D-alaninamide]	293	5.5	
CN[C@@H](Cc1ccc(O)cc1)C(=O)N[C@H](C)C(=O)NCCCc1ccccc1 [Example 2, N-methyl-L-tyrosyl-N-(3-phenylpropyl)-D-alaninamide]	194	10 to 30	
CN[C@@H](Cc1ccc(O)cc1)C(=O)N(C)[C@H](C)C(=O)NCCCc1ccccc1 [Example 3, N-methyl-L-tyrosyl-N^2-methyl-N-(3-phenylpropyl)-D-alaninamide]	200	9.4	
CCN(C(=O)[C@@H](N)Cc1ccc(O)cc1)[C@H](C)C(=O)NCCCc1ccccc1 [Example 4, L-tyrosyl-N^2-ethyl-N-(3-phenylpropyl)-D-alaninamide]	12		
C[C@H](C(=O)NCCCc1ccc(Cl)cc1)N(C)C(=O)[C@@H](N)Cc1ccc(O)cc1 [Example 5, L-tyrosyl-N^2-methyl-N-[3-(4-chlorophenyl)propyl]-D-alaninamide]	51		
C[C@H](C(=O)NCCCc1ccc(C(F)(F)F)cc1)N(C)C(=O)[C@@H](N)Cc1ccc(O)cc1 [Example 6, L-tyrosyl-N^2-methyl-N-[3-(4-trifluoromethylphenyl)propyl]-D-alaninamide]	13		
C[C@H](C(=O)NCCCc1ccc(F)cc1)N(C)C(=O)[C@@H](N)Cc1ccc(O)cc1 [Example 7, L-tyrosyl-N^2-methyl-N-[3-(4-fluorophenyl)propyl]-D-alaninamide]	178		
C[C@@H](NC(=O)[C@@H](N)Cc1ccc(O)cc1)C(N)=O [H-Tyr-D-Ala-NH2]			times less potent than morphine, intravenously (rat; intravenous): greater than 10 times; times less potent than morphine, intraventricularly (rat; intraventricular): 200 times
C[C@@H](NC(=O)[C@@H](N)Cc1ccc(O)cc1)C(=O)NCCNCCc1ccccc1 [HTyrD-AlaNH(CH2)2 NH(CH2)2 Phenyl]			potency relative to Met-enkephaline (guinea pig ileum): < 1%; potency relative to Met-enkephaline (mouse vas deferens): < 1%
Met^5 -enkephalin [reference compound]	100		
